In patent US20220324835A1 (Nurix Therapeutics, Inc., priority 2018, published 2022):

Legend:
T-cell [1] = assay: IL-2 secretion from T-cells stimulated with anti-CD3 antibody alone (Biological Example 2); type: cell-based, human; conditions: T-cell, read-out: IL-2 secretion Anti-CD3 stimulation; for fold induction at 1 µM: 1 μM Cbl-b inhibitor; for fold induction at 8 µM: 8 μM Cbl-b inhibitor
T-cell [2] = assay: CD25 cell surface staining on T-cells co-stimulated with anti-CD3 and anti-CD28 antibody (Biological Example 2); type: cell-based, human; conditions: Homo sapiens, T-cell, read-out: CD25 staining Anti-CD3/Anti-CD28 stimulation; for fold induction at 0.3 µM: 0.3 μM Cbl-b inhibitor; for fold induction at 1 µM: 1 μM Cbl-b inhibitor; for fold induction at 4 µM: 4 μM Cbl-b inhibitor
How it was run: (§1)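 T-cells were stimulated with anti-CD3 antibody alone or with anti-CD28 antibody, in the presence or absence of Cbl-b inhibitor. IL-2 secretion or CD25 surface staining was measured, and values expressed as fold over the uninhibited baseline […].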

Cbl-b [3] = target: T1, Cbl-b (Homo sapiens, UniProt Q13191); assay: Cbl-b inhibition assay (Cbl-b activity assay, FRET, Biological Example 1; 100 mM NaCl, 60 nM Src kinase); type: biochemical; conditions: upper bound stated in text lists; read-out: IC50 values in the Cbl-b inhibition assay of Biological Example 1
How it was run: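 FRET read-out: loss of signal marks inhibition. Mix = biotin-Avi-Cbl-b (N-term), Src kinase, UbcH5B-Ub(Bodipy-FL, irreversible conjugate), streptavidin-Tb, assay buffer.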

T-cell [4] = assay: IL-2 secretion from T-cells co-stimulated with anti-CD3 and anti-CD28 antibody (Biological Example 2); type: cell-based, human; conditions: Homo sapiens, T-cell, read-out: IL-2 secretion Anti-CD3/Anti-CD28 stimulation; for fold induction at 0.3 µM: 0.3 μM Cbl-b inhibitor; for fold induction at 1 µM: 1 μM Cbl-b inhibitor; for fold induction at 4 µM: 4 μM Cbl-b inhibitor
How it was run: as §1

T-cell [5] = assay: CD25 cell surface staining on T-cells stimulated with anti-CD3 antibody alone (Biological Example 2); type: cell-based, human; conditions: T-cell, read-out: CD25 staining Anti-CD3 stimulation; for fold induction at 1 µM: 1 μM Cbl-b inhibitor; for fold induction at 8 µM: 8 μM Cbl-b inhibitor
Cbl-b [6] = target: T1, Cbl-b; assay: Cbl-b activity assay (Cbl-b inhibition assay), TR-FRET of Cbl-b interaction with UbcH5B-Ub; type: biochemical; conditions: assay buffer with 100 mM NaCl, 60 nM Src kinase; read-out: Cbl-b activity IC50
How it was run: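 UbcH5B (C85K) conjugated to N-terminally Bodipy-Fluorescein-labeled ubiquitin served as the fluorescent partner. After compound preincubation, Src kinase (60 nM) with 1 mM ATP and 5 mM MgCl2 (final) was added for 1.5 h, followed by a further 1 h incubation. Some values were obtained with 50 mM NaCl and 30 nM Src.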

[7] = fold change over baseline, primary human total T-cells
[8] = Homo sapiens, fold change over baseline (anti-CD3/anti-CD28 stimulated T-cells without inhibitor)
[9] = fold change over baseline (anti-CD3/anti-CD28 stimulated T-cells without inhibitor)

T1 sequence (Q13191 36-427): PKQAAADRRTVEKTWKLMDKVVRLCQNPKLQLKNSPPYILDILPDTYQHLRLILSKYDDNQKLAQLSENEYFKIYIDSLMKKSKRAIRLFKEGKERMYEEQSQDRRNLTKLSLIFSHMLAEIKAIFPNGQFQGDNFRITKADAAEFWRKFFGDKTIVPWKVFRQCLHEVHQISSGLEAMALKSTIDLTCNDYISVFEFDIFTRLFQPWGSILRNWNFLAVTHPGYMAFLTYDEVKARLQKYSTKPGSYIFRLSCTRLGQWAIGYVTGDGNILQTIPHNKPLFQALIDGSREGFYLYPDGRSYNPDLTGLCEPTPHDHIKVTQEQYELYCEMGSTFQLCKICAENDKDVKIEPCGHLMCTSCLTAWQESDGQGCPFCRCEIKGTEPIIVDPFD

Structure (SMILES) | fold induction at 1 µM (T-cell [1]; [7]) | fold induction at 8 µM (T-cell [1]; [7]) | fold induction at 0.3 µM (T-cell [2]; [7]) | fold induction at 1 µM (T-cell [2]; [7]) | fold induction at 4 µM (T-cell [2]; [7]) | IC50 (Cbl-b [3]) [nM] | fold induction at 0.3 µM (T-cell [4]; [7]) | fold induction at 1 µM (T-cell [4]; [7]) | fold induction at 4 µM (T-cell [4]; [7]) | fold induction at 1 µM (T-cell [5]; [7]) | fold induction at 8 µM (T-cell [5]; [7]) | IC50 (Cbl-b [6]) [nM] | fold induction at 1 µM (T-cell [1]; [8]) | fold induction at 0.3 µM (T-cell [2]; [9]) | fold induction at 1 µM (T-cell [2]; [9]) | fold induction at 0.3 µM (T-cell [4]; [9]) | fold induction at 1 µM (T-cell [4]; [9]) | fold induction at 1 µM (T-cell [5]; [8])
COc1cc(C(=O)Nc2cccc([C@H](C)Cc3nncn3C)c2)nc(C(F)(F)F)c1 [Compound 192, (R)-4-methoxy-N-(3-(1-(4-methyl-4H-1,2,4-triazol-3-yl)propan-2-yl)phenyl)-6-(trifluoromethyl)picolinamide] | 0.101 to 0.15 | 0.101 to 0.15 | 1.01 to 1.3 | 1.01 to 1.3 | 1.01 to 1.3 | ≤ 1000 | 1.01 to 2.5 | 1.01 to 2.5 | 1.01 to 2.5 | 0.801 to 1 | 0.801 to 1 | 301 to 1000 |  |  |  |  |  | 
CC1CN(c2cc3c(c(C(F)(F)F)c2)CN(c2cccc(C4(Cc5nncn5C)COC4)c2)C3=O)C1 [Example 607, 2-(3-(3-((4-methyl-4H-1,2,4-triazol-3-yl)methyl)oxetan-3-yl)phenyl)-6-(3-methylazetidin-1-yl)-4-(trifluoromethyl)isoindolin-1-one] |  |  |  |  |  | ≤ 100 |  |  |  |  |  | < 100 | 0.101 to 0.15 | 1.01 to 1.3 | 1.01 to 1.3 | 1.01 to 2.5 | 2.51 to 5 | 0.601 to 0.8
Cn1cnnc1CC1(c2cccc(NC(=O)c3cc(CN4CC[C@H](F)C4)nc(C(F)(F)F)n3)c2)COC1 [Example 699, (S)-6-((3-fluoropyrrolidin-1-yl)methyl)-N-(3-(3-((4-methyl-4H-1,2,4-triazol-3-yl)methyl)oxetan-3-yl)phenyl)-2-(trifluoromethyl)pyrimidine-4-carboxamide] |  |  |  |  |  | ≤ 100 |  |  |  |  |  | < 100 | 0.051 to 0.1 | 1.01 to 1.3 | 1.01 to 1.3 | 1.01 to 2.5 | 2.51 to 5 | 0.801 to 1
Cc1ccc(C(=O)Nc2cccc(C(C)Cc3nccn3C)c2)nc1C1CC1 (stereo not drawn) [Compound 214, 6-Cyclopropyl-5-methyl-N-(3-(1-(1-methyl-1H-imidazol-2-yl)propan-2-yl)phenyl)picolinamide] | 0.051 to 0.1 | 0.051 to 0.1 | < 1 | < 1 | 1.01 to 1.3 | ≤ 10000 | > 7.5 | > 7.5 | > 7.5 | < 0.6 | < 0.6 | 1000 to 3000 |  |  |  |  |  | 
Cn1cnnc1CC1(c2cccc(N3Cc4c(cc(CN5CCC(C#N)CC5)cc4C(F)(F)F)C3=O)c2)COC1 [Example 628, 1-((2-(3-(3-((4-methyl-4H-1,2,4-triazol-3-yl)methyl)oxetan-3-yl)phenyl)-3-oxo-7-(trifluoromethyl)isoindolin-5-yl)methyl)piperidine-4-carbonitrile] |  |  |  |  |  | ≤ 100 |  |  |  |  |  | < 100 | > 0.201 | 1.31 to 1.5 | 1.31 to 1.5 | 5 to 7.5 | > 7.5 | > 1
Cn1cnnc1CC1(c2cccc(N3Cc4c(cc(CN5CCc6ccccc6C5)cc4C(F)(F)F)C3=O)c2)COC1 [Example 650, 6-((3,4-dihydroisoquinolin-2(1H)-yl)methyl)-2-(3-(3-((4-methyl-4H-1,2,4-triazol-3-yl)methyl)oxetan-3-yl)phenyl)-4-(trifluoromethyl)isoindolin-1-one] |  |  |  |  |  | ≤ 100 |  |  |  |  |  | < 100 | > 0.201 | 1.01 to 1.3 | 1.31 to 1.5 | 5 to 7.5 | > 7.5 | > 1
Cn1cnnc1CC1(c2cccc(N3Cc4c(cc(N5CCOCC5)cc4C(F)(F)F)C3=O)c2)COC1 [Example 567, 2-(3-(3-((4-Methyl-4H-1,2,4-triazol-3-yl)methyl)oxetan-3-yl)phenyl)-6-morpholino-4-(trifluoromethyl)isoindolin-1-one] |  |  |  |  |  | ≤ 100 |  |  |  |  |  | < 100 | 0.051 to 0.1 | 1.01 to 1.3 | 1.01 to 1.3 | 1.01 to 2.5 | 2.51 to 5 | 0.801 to 1
Cn1cnnc1CC1(c2cccc(NC(=O)c3cc(CN4CCCCC4)nc(C4CC4)n3)c2)COC1 [Example 589, 2-Cyclopropyl-N-(3-(3-((4-methyl-4H-1,2,4-triazol-3-yl)methyl)oxetan-3-yl)phenyl)-6-(piperidin-1-ylmethyl)pyrimidine-4-carboxamide] |  |  |  |  |  | ≤ 100 |  |  |  |  |  | < 100 | > 0.201 | > 1.76 | > 1.76 | > 7.5 | > 7.5 | > 1
Cc1cc(C(=O)Nc2cccc([C@H](C)Cc3nncs3)c2)nc(C2CC2)n1 [Compound 334, (R)-N-(3-(1-(1,3,4-thiadiazol-2-yl)propan-2-yl)phenyl)-2-cyclopropyl-6-methylpyrimidine-4-carboxamide] | 0.101 to 0.15 | > 0.201 | 1.01 to 1.3 | 1.01 to 1.3 | 1.01 to 1.3 | ≤ 300 | 1.01 to 2.5 | 2.51 to 5 | 5 to 7.5 | 0.601 to 0.8 | 0.801 to 1 | 100 to 300 |  |  |  |  |  | 
Cn1cnnc1[C@@H](F)C1(c2cccc(N3Cc4c(cc(CN5CCC6(CC6)C5)cc4C(F)(F)F)C3=O)c2)COC1 [Example 618, (S)-6-((5-azaspiro[2.4]heptan-5-yl)methyl)-2-(3-(3-(fluoro(4-methyl-4H-1,2,4-triazol-3-yl)methyl)oxetan-3-yl)phenyl)-4-(trifluoromethyl)isoindolin-1-one] |  |  |  |  |  | ≤ 100 |  |  |  |  |  | < 100 | 0.101 to 0.15 | 1.01 to 1.3 | 1.31 to 1.5 | 5 to 7.5 | > 7.5 | > 1
CN1C2CCC1CN(c1cc3c(c(C(F)(F)F)c1)CN(c1cccc([C@@](C)(F)C(F)(F)c4nncn4C)c1)C3=O)C2 [Example 564, 6-(8-Methyl-3,8-diazabicyclo[3.2.1]octan-3-yl)-2-(3-((R)-1,1,2-trifluoro-1-(4-methyl-4H-1,2,4-triazol-3-yl)propan-2-yl)phenyl)-4-(trifluoromethyl)isoindolin-1-one] |  |  |  |  |  | ≤ 100 |  |  |  |  |  | < 100 | 0.101 to 0.15 | 1.01 to 1.3 | 1.31 to 1.5 | 1.01 to 2.5 | 2.51 to 5 | 0.801 to 1
Cn1cnnc1CC1(c2cccc(N3Cc4c(cc(CN5Cc6ccc(F)cc6C5)cc4C(F)(F)F)C3=O)c2)COC1 [Example 655, 6-((5-fluoroisoindolin-2-yl)methyl)-2-(3-(3-((4-methyl-4H-1,2,4-triazol-3-yl)methyl)oxetan-3-yl)phenyl)-4-(trifluoromethyl)isoindolin-1-one] |  |  |  |  |  | ≤ 100 |  |  |  |  |  | < 100 | > 0.201 | 1.31 to 1.5 | 1.31 to 1.5 | 5 to 7.5 | > 7.5 | > 1
